Assay [1] concerns MOLP-8 human multiple myeloma cell line. The assay is described as follows: MOLP8 Caspase-Glo 3/7 luminescent assay. The class given is cell-based. The following applies: averaged over all runs on all batches. An excerpt:
(§1) MCL-1 is a regulator of apoptosis and is highly over-expressed in tumor cells that escape cell death. The assay evaluates the cellular potency of small-molecule compounds targeting regulators of the apoptosis pathway, primarily MCL-1, Bfl-1, Bcl-2, and other proteins of the Bcl-2 family. Protein-protein inhibitors disrupting the interaction of anti-apoptotic regulators with BH3-domain proteins initiate apoptosis.
The Caspase-Glo® 3/7 Assay is a luminescent assay that measures caspase-3 and -7 activities in purified enzyme preparations or cultures of adherent or suspension cells. The assay provides a proluminescent caspase-3/7 substrate, which contains the tetrapeptide sequence DEVD. This substrate is cleaved to release aminoluciferin, a substrate of luciferase used in the production of light. Addition of the single Caspase-Glo® 3/7 Reagent in an “add-mix-measure” format results in cell lysis, followed by caspase cleavage of the substrate and generation of a “glow-type” luminescent signal.
This assay uses the MOLP-8 human multiple myeloma cell line, which is sensitive to MCL-1 inhibition.
Cell cultures were maintained between 0.2 and 2.0×10^6 cells/mL. The cells were harvested by collection in 50 mL conical tubes. The cells were then pelleted at 500 g for 5 mins before removing supernatant and resuspension in fresh pre-warmed culture medium. The cells were counted and diluted as needed.
The assay reagent was prepared by transferring the buffer solution to the substrate vial and mixing. The solution may be stored for up to 1 week at 4° C. with negligible loss of signal.
Compounds were delivered in assay-ready plates (Proxiplate) and stored at −20° C.
Assays always include 1 reference compound plate containing reference compounds. The plates were spotted with 40 nL of compounds (0.5% DMSO final in cells; serial dilution; 30 μM highest conc. 1/3 dilution, 10 doses, duplicates). The compounds were used at room temperature and 4 μL of pre-warmed media was added to all wells except column 2 and 23. The negative control was prepared by adding 1% DMSO in media. The positive control was prepared by adding the appropriate positive control compound in final concentration of 60 μM in media. The plate was prepared by adding 4 μL negative control to column 23, 4 μL positive control to column 2 and 4 μL cell suspension to all wells in the plate. The plate with cells was then incubated at 37° C. for 2 hours. The assay signal reagent is the Caspase-Glo solution described above, and 8 μL was added to all wells. The plates were then sealed and measured after 30 minutes.
The activity of a test compound was calculated as percent change in apoptosis induction as follows: […]

Another assay deals with MOLP8 cell line. Nature of the assay: MOLP8 CellEvent Caspase-3/7 Green live-cell IncuCyte apoptosis assay. The class given is cell-based, human. The conditions noted are these: MOLP8 cells, averaged values. Here is the method: as §1
Activation of the apoptotic pathway was measured using the CellEvent™ Caspase-3/7 Green ReadyProbes™ Reagent (Thermo Fisher C10423, C10723). This assay produces a green fluorescent stain in cells that enter the apoptosis pathway. CellEvent® Caspase-3/7 Green reagent is a four amino acid peptide (DEVD) conjugated to a nucleic acid-binding dye that is non-fluorescent when not bound to DNA. The CellEvent® Caspase-3/7 Green reagent is intrinsically non-fluorescent, as the DEVD peptide inhibits binding of the dye to DNA. Upon activation of caspase-3/7 in apoptotic cells, the DEVD peptide is cleaved and the free dye can bind DNA, generating a bright green fluorescence. The activation of Caspase-3 and Caspase-7 is downstream of inhibition of MCL-1 or other apoptosis inhibiting proteins in cell lines that are dependent on them.
The live-cell readout on the IncuCyte permits tracking over time of the Caspase activation. […] The IncuCyte readout also allows one to normalize for cell number, as the suspension cells are hard to distribute evenly.
Signals were measured every 2 h for a duration of 22 h. The ratio of the Caspase mask to the Confluence mask, per image, as raw data, was calculated and the kinetic trace for every well was exported to Genedata Screener for analysis.
In Genedata Screener values for 6 h, 12 h, and 22 h from the kinetic traces were extracted. The values were normalized against negative controls (untreated cells). A standard dose-response analysis was performed on the normalized data.
The following data was reported at each of the following three aforementioned time points: (a) The dose-response curve, (b) The qAC50 and qAC50 Mode, and (c) Max Activity.
Cells were maintained in culture medium containing 10% Heat Inactivated (HI) FBS, 2 mM L-Glutamine and 50 μg/mL Gentamycin phenol red free RPMI-1640. Cells were split at 0.4 million/mL twice a week.
On Day 1, plates containing individual wells with test compounds at 10 mM concentration, 150 nL per well. The final concentrations range from […] compound (and no compound control) and compounds were thawed at room temperature for 1 hour. 25 μl of prewarmed medium was added into each well by multidrop (column 1, 3-22, 24), followed by addition of DMSO control (0.6% DMSO) in column 2. The plate was sealed using Breathe-Easy® sealing membrane and shaken for 30 min at room temperature to dissolve the test compound(s) in medium. The plate was then kept in the incubator for 1 hour at 37° C., 5% CO2.
MOLP8 cells in medium at […] (20000/50 μl final in assay) were prepared with CellEvent™ Caspase-3/7 Green Detection Reagent at 4 μM (2 μM final in assay). Once prepared, the cells were added to the test compound plate in an amount of 20000 and the plate was immediately placed in the IncuCyte and imaging started using following settings: 10× objective, 2 s exposure time in green channel, interval of 2 h, acquisition stopped after 22 h.
For analysis in IncuCyte, a Basic Analysis protocol was defined to calculate the “confluence” and “caspase” areas from the “Phase” and “green” images, respectively, as follows: (a) Confluence: Segmentation Adjustment 1, Hole Fill 0, Adjust Size −2, No filters (b) Caspase: Top-Hat segmentation, Radius 10, Threshold 0.3 GCU, Edge Split On with sensitivity 0, Hole Fill 0, Adjust Size 1, and filter on a minimum Area of 20 μm^2. The analyzer is trained on a sufficient number of positive and negative control wells, as well as compound treated wells, verifying that the “confluence” layer detects both live and dead (condensed) cells. […]

Assay [2] addresses Myeloid Cell Leukemia 1 (Mcl-1) (Homo sapiens, UniProt Q07820). The assay is described as follows: biochemical. The class given is binding. The conditions noted are these: HTRF Ki (nM).
[3] abbreviates: MOLP8 cells, 2 hours incubation, read-out: MOLP8 Caspase-Glo AC50.
Where [4] appears, read: read-out: MOLP8 Caspase 3/7 AC50 at 6 h, 6 h.
Where [5] appears, read: read-out: MOLP8 Caspase 3/7 AC50 at 12 h, 12 h.
Setting [6] is: read-out: MOLP8 Caspase 3/7 AC50 at 22 h, 22 h.
The mark [7] stands for this setting: read-out: MOLP8 Caspase-Glo AC50, MOLP8 cells, 2 hours incubation.

“And” between values parts separate entries of the source, which are not always exact repeats. Identical values can stand only once. Like-named read-outs stand apart in the source and are kept apart here.

Myeloid Cell Leukemia 1 (Mcl-1), sequence (Q07820 whole entry): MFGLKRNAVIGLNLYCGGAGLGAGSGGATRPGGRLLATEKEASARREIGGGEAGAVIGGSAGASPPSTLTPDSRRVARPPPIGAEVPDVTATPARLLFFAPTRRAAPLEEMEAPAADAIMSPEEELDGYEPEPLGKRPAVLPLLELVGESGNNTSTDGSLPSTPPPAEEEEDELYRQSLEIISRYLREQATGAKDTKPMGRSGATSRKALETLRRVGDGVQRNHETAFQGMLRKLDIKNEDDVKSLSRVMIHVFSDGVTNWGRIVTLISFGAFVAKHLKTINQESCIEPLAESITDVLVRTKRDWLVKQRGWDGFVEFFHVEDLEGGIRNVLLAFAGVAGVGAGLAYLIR

In the case of `Cc1c2c(nn1CC1CCOCC1)CN(C)Cc1cc(n(C)n1)CSc1cc(c3ccccc3c1)OCCCc1c(C(=O)O)n(C)c3c-2c(Cl)ccc13` (single isomer, unassigned) [Compound 16], the AC50 in assay [1] (setting [3]) worked out at 49 nM; in the assay on MOLP8 cell line (setting [4]), 150 nM; in the assay with MOLP8 cell line (setting [5]), 140 nM; with MOLP8 cell line (setting [6]), 150 nM. Besides, the Ki (commonly a dissociation constant, usually derived from enzyme kinetics or from competition with a known ligand) in assay [2] was 0.06 nM and 0.05 nM.
On to `Cc1c2c(nn1CC1CCOCC1)CN(C)Cc1cc(n(C)n1)CSc1cc(c3ccccc3c1)OCCCc1c(C(=O)O)n(C)c3c-2c(Cl)ccc13` (single isomer, unassigned) [Compound 17], for which the AC50 was found to be 564 nM in assay [1] (setting [3]), 1230 nM in the assay with MOLP8 cell line (setting [4]), 1240 nM in the assay on MOLP8 cell line (setting [5]) and 1220 nM in the assay with MOLP8 cell line (setting [6]). In addition, the Ki in assay [2] is 0.41 nM and 0.66 nM.
Regarding `Cc1nn(CC2CCOCC2)c2c1-c1c(Cl)ccc3c(c(C(=O)O)n(C)c13)CCCOc1cc(cc3ccccc13)SCc1cc(nn1C)CN(C)C2` (single isomer, unassigned) [Compound 18], the AC50 in assay [1] (setting [3]) was 3760 nM; in the assay on MOLP8 cell line (setting [4]), 8320 nM; in the assay on MOLP8 cell line (setting [5]), 8410 nM; with MOLP8 cell line (setting [6]), 7850 nM. Further, in assay [2], the Ki was 2.46 nM and 3.31 nM.
For the molecule `Cc1nn(CCN(C)C)c2c1-c1c(Cl)ccc3c(c(C(=O)O)n(C)c13)CCCOc1cc(cc3ccccc13)SCc1cc(nn1C)CN(C)C2` (single isomer, unassigned) [Compound 19], the AC50 in assay [1] (setting [3]) stood at 233 nM; with MOLP8 cell line (setting [4]) it was 1090 nM; in the assay on MOLP8 cell line (setting [5]), 990 nM; in the assay with MOLP8 cell line (setting [6]), 990 nM. The Ki in assay [2] was 0.08 nM and 0.18 nM.
For `Cc1c2c(nn1CCN(C)C)CN(C)Cc1cc(n(C)n1)CSc1cc(c3ccccc3c1)OCCCc1c(C(=O)O)n(C)c3c-2c(Cl)ccc13` (single isomer, unassigned) [Compound 20], the AC50 in assay [1] (setting [3]) amounted to 83 nM; with MOLP8 cell line (setting [4]) it was 290 nM; with MOLP8 cell line (setting [5]) it was 320 nM; with MOLP8 cell line (setting [6]) it was 330 nM. The inhibition constant Ki in assay [2] is 0.06 nM and 0.03 nM.
Regarding `Cc1c2c(nn1CCN(C)C)CN(C)Cc1cc(n(C)n1)CSc1cc(c3ccccc3c1)OCCCc1c(C(=O)O)n(C)c3c-2c(Cl)ccc13` (single isomer, unassigned) [Compound 21], the AC50 in assay [1] (setting [3]) turned out to be 1600 nM; with MOLP8 cell line (setting [4]) it was 3160 nM; in the assay on MOLP8 cell line (setting [5]) it was 2960 nM; in the assay with MOLP8 cell line (setting [6]), 3090 nM. Further, the Ki in assay [2] is 0.49 nM and 0.31 nM.
Regarding `Cc1nn(CCN(C)C)c2c1-c1c(Cl)ccc3c(c(C(=O)O)n(C)c13)CCCOc1cc(cc3ccccc13)SCc1cc(nn1C)CN(C)C2` (single isomer, unassigned) [Compound 22], the AC50 in assay [1] (setting [3]) was 14500 nM; in the assay with MOLP8 cell line (setting [4]), roughly 17400 nM; in the assay on MOLP8 cell line (setting [5]) it was roughly 17000 nM; with MOLP8 cell line (setting [6]), roughly 17000 nM. Also, the Ki in assay [2] was 3.73 nM and 3.07 nM.
With `Cc1[nH]nc2c1-c1c(Cl)ccc3c(c(C(=O)O)n(C)c13)CCCOc1cc(cc3ccccc13)SCc1cc(nn1C)CN(C)C2` (single isomer, unassigned) [Compound 23], the AC50 is 215 nM in assay [1] (setting [7]), 450 nM with MOLP8 cell line (setting [4]), 450 nM with MOLP8 cell line (setting [5]) and 420 nM in the assay with MOLP8 cell line (setting [6]). In addition, the inhibitory constant (Ki) in assay [2] was 0.07 nM and 0.03 nM.
As for `Cc1[nH]nc2c1-c1c(Cl)ccc3c(c(C(=O)O)n(C)c13)CCCOc1cc(cc3ccccc13)SCc1cc(nn1C)CN(C)C2` (single isomer, unassigned) [Compound 24], the AC50 in assay [1] (setting [7]) is 8160 nM; with MOLP8 cell line (setting [4]), roughly 10500 nM; in the assay on MOLP8 cell line (setting [5]), 12000 nM; in the assay with MOLP8 cell line (setting [6]), 11500 nM. For the same molecule, in assay [2], the Ki is 1.2 nM and 1.87 nM.
As for `COCCn1nc(C)c2c1CN(C)Cc1cc(n(C)n1)CSc1cc(c3ccccc3c1)OCCCc1c(C(=O)O)n(C)c3c-2c(Cl)ccc13` (single isomer, unassigned) [Compound 26], the AC50 in assay [1] (Homo sapiens, MOLP-8, 2 h, read-out: MOLP8 Caspase-Glo AC50 (nM), MOLP8 cells, 2 hours incubation) stood at 4330 nM; with MOLP8 cell line (setting [4]), 8290 nM; in the assay with MOLP8 cell line (setting [5]) it was 7960 nM; in the assay with MOLP8 cell line (setting [6]), 8610 nM. The Ki in assay [2] was 4.14 nM and 5.54 nM.

The record behind these values is patent publication US20230021562A1, “[…] D[…]-1 INHIBITORS” (priority 2019, published 2023).
